According to patent US11434205B2, “Substituted imidazole carboxylate derivatives and the use thereof” (priority 2018, dated 2022):
Read-outs that look alike come from different tables or passages of the source.

What was measured:
rats [1] = assay: Loss of righting reflexes (LORR) assay in rats, ED50 by up and down method; type: in vivo, rat; conditions: tail vein, class symbols
Procedure, shortened: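 ED50 obtained by up-and-down dosing, with righting-reflex loss over 30 s counted as general anesthesia. Compounds injected into the tail vein (0.1 mL/s) of male Sprague-Dawley rats weighing 250-300 g.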

rats [2] = tested on: rats
Method: Adult male Sprague-Dawley rats (250-300 g) were selected for the experiment. […] The anesthesia effects of the compounds were assessed in rats using a LORR assay and a period >30 s was considered as an indicator of general anesthesia. Then the up and down method was used to determine 50% effective dose (ED50). The drugs were administered through the tail vein of rats in a volume of 0.6 mL and at a rate of 0.1 mL/s.

rats [3] = assay: Pharmacological characteristics at equivalent doses (2×ED50) in rats; conditions: 2×ED50, tail vein; for Adverse reactions: Red urine (incidence): DMSO solution (DMSO alone 10/10); for Onset time: time of LORR
Procedure, shortened: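 Anesthesia onset, recorded as time of LORR, was measured after a 2×ED50 tail-vein injection (0.6 mL, 0.1 mL/s). Animals were male Sprague-Dawley rats of 250-300 g, n=8.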

[4] = tested on: secretion of corticosterone, H295R cell line; assay: cells; type: cell-based; conditions: for EC50: read-out: EC50 (Corticosterone)
Method: (§1) The Effects of the Compounds on Adrenocortical Function In Vitro Test
(§2) Then secretion of the cortisol and corticosterone in the supernatant, was measured using HPLC-MS/MS method to determine whether the compounds of the present invention had adrenotoxic potential.

[5] = tested on: secretion of cortisol, H295R cell line; assay: cells; type: cell-based; conditions: for EC50: read-out: EC50 (Cortisol)
Method: as §1, §2

rats [6] = type: in vivo, rat; conditions: rats of the MAP/HR figures, 2×ED50, tail vein; same value in min
Procedure, shortened: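 Hemodynamic stability judged from mean arterial pressure and heart rate, recorded at 15 s intervals over 30 min pre- and post-dose. Dosing was through a tail-vein indwelling catheter in rats carrying implanted aortic/ventricular catheters and ECG wires, operated ≥1 week earlier.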

rats [7] = conditions: continuous tail vein infusion at 2×MIR, LORR maintained 1 hour, Table E4
Method: Pharmacological Effects of the Compounds on Continuous Infusion in Rats
Adult male Sprague-Dawley rats with body weight ranging from 250 to 300 gm were selected for continuous infusion test. […] Time to recovery of righting reflex from stopping infusion, and time to fully awake from stopping infusion were recorded.

rats [8] = type: in vivo, rat; conditions: rats of the MAP/HR figures, 2×ED50, tail vein
11-β-hydroxylase = target: T1, 11-β-hydroxylase (Rattus norvegicus, UniProt P15393); conditions: compared with etomidate; cited from earlier work
T1 sequence (P15393 25-499): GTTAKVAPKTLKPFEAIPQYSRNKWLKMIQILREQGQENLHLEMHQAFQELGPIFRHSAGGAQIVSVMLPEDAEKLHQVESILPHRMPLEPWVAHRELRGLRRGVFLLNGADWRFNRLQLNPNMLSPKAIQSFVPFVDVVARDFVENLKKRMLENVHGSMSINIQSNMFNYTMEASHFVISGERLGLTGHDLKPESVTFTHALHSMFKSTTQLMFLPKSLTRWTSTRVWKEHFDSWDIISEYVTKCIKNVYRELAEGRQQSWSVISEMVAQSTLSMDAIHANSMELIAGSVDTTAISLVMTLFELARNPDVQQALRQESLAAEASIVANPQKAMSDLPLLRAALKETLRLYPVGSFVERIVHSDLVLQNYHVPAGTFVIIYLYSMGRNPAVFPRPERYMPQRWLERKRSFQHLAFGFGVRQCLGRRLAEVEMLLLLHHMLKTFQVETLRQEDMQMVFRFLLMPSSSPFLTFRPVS

[9] = H295R cell line, 0.1-10000 nM, HPLC-MS/MS, Table E3
[10] = H295R cell line, 0.1-10000 nM, HPLC-MS/MS, Table D3
[11] = H295R, 0.1-10000 nM, HPLC-MS/MS

| SMILES | ED50 (mg/kg) (rats [1]) | Approximate therapeutic index (rats [2]) | Minimal lethal dose (rats [2]) [mg/kg] | Righting reflex duration (rats [3]) [min] | Sedation duration (mg/kg) (rats [3]) | Adverse reactions: Red urine (incidence) (rats [3]) | Onset time (rats [3]) [min] | Corticosterone as an indicator to determine the presence of inhibition [4, 9] | EC50 [4, 9] [µM] | Cortisol as an indicator to determine the presence of inhibition [5, 9] | EC50 [5, 9] [µM] | recovery time of the test animals' righting reflex (rats [6]) [min] | Onset time (rats [7]) [min] | Recovery time after stopping infusion (rats [7]) [min] | Types and incidence of adverse reactions (rats [7]) | recovery time of the test animals' righting reflex (rats [8]) [s] | further results |
| --- | --- | --- | --- | --- | --- | --- | --- | --- | --- | --- | --- | --- | --- | --- | --- | --- | --- |
| C[C@H](c1ccccc1)n1cnc(F)c1C(=O)OCC1CC1 [Compound E8] | B (B means that the measured ED50 is in the range of 0.10-0.50 mg/kg (excluding 0.10 mg/kg, including 0.50 mg/kg).) | >22 | >4 | 1.90 ± 0.82 | 7.12 ± 0.81 | (8/8) | 0.38 ± 0.06 | 0 | > 0.1 | 0 | > 0.1 | 2.00 | 3 to 4 | 12 to 14 | Tremor (1/6), Tongue stretching (4/6) | 120 |  |
| CC#CCOC(=O)c1c(F)ncn1[C@H](C)c1ccccc1 [Compound E35] |  | >17 | >4 | 2.30 ± 0.80 |  | urine (8/8) | 0.32 ± 0.11 | 0 |  | 0 |  | 2.52 | 2 to 3 | 10 to 13 | Tongue stretching (2/6), Tremor (3/6) | 151 | ED50 (rats [1]; Rattus norvegicus): 0.1 to 0.5 mg/kg; Adverse reactions: Tremor (incidence) (rats [3]; animals affected/animals): (4/8), Red; EC50 ([4]; Homo sapiens, NCI-H295R): > 10 µM; EC50 ([5]; Homo sapiens, NCI-H295R): > 10 µM |
| C=C=CC1(OC(=O)c2c(F)ncn2[C@H](C)c2ccccc2)COC1 [Compound E37] | A (A indicates that the measured ED50 is in the range of 0.01-0.10 mg/kg (including 0.01 and 0.10 mg/kg).) | >30 | >0.6 | 1.75 ± 0.26 | 3.66 ± 1.12 | (8/8) | 0.25 ± 0.15 | 0 | > 10 | 0 | > 10 | 1.67 | 2 to 3 | 7 to 10 | Tremor (2/6) | 100 |  |
| C[C@H](c1ccccc1)n1cnc(F)c1C(=O)OC1(C)COC1 [Compound E38] | B (B means that the measured ED50 is in the range of 0.10-0.50 mg/kg (excluding 0.10 mg/kg, including 0.50 mg/kg).) | >20 | >7 | 1.96 ± 1.39 | 4.96 ± 1.66 | (8/8) | 0.25 ± 0.13 | 0 | > 10 | 0 | > 10 | 2.03 | 2 to 3 | 8 to 13 | Tremor (3/6) | 122 |  |
| C[C@H](c1ccccc1)n1cncc1C(=O)O [Etomidate acid, etomidate acid, reference compound] |  |  |  |  |  |  |  | 0 | > 10 | 0 | > 10 |  |  |  |  |  | Corticosterone as an indicator to determine the presence of inhibition [4, 10]: 0; EC50 [4, 10]: > 10 µM; EC50 [4, 11]: > 10 µM; Corticosterone as an indicator to determine the presence of inhibition ([4]; H295R, Table A3): 0; Corticosterone as an indicator to determine the presence of inhibition ([4]; H295R, Table B3): 0; Corticosterone as an indicator to determine the presence of inhibition ([4]; H295R, Table C3): 0; Cortisol as an indicator to determine the presence of inhibition [5, 10]: 0; EC50 [5, 10]: > 10 µM; EC50 [5, 11]: > 10 µM; Cortisol as an indicator to determine the presence of inhibition ([5]; H295R, Table A3): 0; Cortisol as an indicator to determine the presence of inhibition ([5]; H295R, Table B3): 0; Cortisol as an indicator to determine the presence of inhibition ([5]; H295R, Table C3): 0; inhibitory effect on 11-β-hydroxylase (11-β-hydroxylase): little inhibitory effect |
